Active and inactive are the calls of the source. The calls are words filed in the database; no cut-off is given here.
Experiments:
[1] = tested on: Lindernia procumbens; assay: Herbicidal activity against Lindernia procumbens at 1000 g /ha treated at 1 to 2-pairs of leaf stage measured after 26 days by outdoor concrete pot test; format: functional, organism-based
[2] = tested on: Echinochloa oryzicola; assay: Herbicidal activity against Echinochloa oryzicola at 1000 g /ha treated at 1.5 to 2-leaf stage measured after 26 days by outdoor concrete pot test; format: functional, organism-based
[3] = tested on: Echinochloa oryzicola; assay: Herbicidal activity against Echinochloa oryzicola under greenhouse condition assessed as growth inhibition at 250 g /ha measured after 20 days; format: functional, organism-based
[4] = tested on: Echinochloa oryzicola; assay: Herbicidal activity against Echinochloa oryzicola grown in water-drained pot under greenhouse condition assessed as growth inhibition at 500 g /ha measured after 42 days; format: functional, organism-based
[5] = tested on: Echinochloa oryzicola; assay: Herbicidal activity against Echinochloa oryzicola grown in water-drained pot under greenhouse condition assessed as growth inhibition at 125 g /ha measured after 6 days; format: functional, organism-based
[6] = tested on: Echinochloa oryzicola; assay: Herbicidal activity against Echinochloa oryzicola under greenhouse condition assessed as growth inhibition at 500 g /ha measured after 42 days; format: functional, organism-based
[7] = tested on: Echinochloa oryzicola; assay: Herbicidal activity against Echinochloa oryzicola under greenhouse condition assessed as growth inhibition at 1000 g /ha measured after 20 days; format: functional, organism-based
[8] = tested on: Echinochloa oryzicola; assay: Herbicidal activity against Echinochloa oryzicola under greenhouse condition assessed as growth inhibition at 250 g /ha measured after 6 days; format: functional, organism-based
[9] = tested on: Echinochloa oryzicola; assay: Herbicidal activity against Echinochloa oryzicola grown in water-drained pot under greenhouse condition assessed as time duration of residual effect at 500 g /ha; format: functional
[10] = tested on: Echinochloa oryzicola; assay: Herbicidal activity against Echinochloa oryzicola under greenhouse condition assessed as growth inhibition at 250 g /ha measured after 33 days; format: functional, organism-based
[11] = tested on: Echinochloa oryzicola; assay: Herbicidal activity against Echinochloa oryzicola grown in water-drained pot under greenhouse condition assessed as growth inhibition at 500 g /ha measured after 13 days; format: functional, organism-based
[12] = tested on: Echinochloa oryzicola; assay: Herbicidal activity against Echinochloa oryzicola under greenhouse condition assessed as growth inhibition at 250 g /ha measured after 13 days; format: functional, organism-based
[13] = tested on: Echinochloa oryzicola; assay: Herbicidal activity against Echinochloa oryzicola under greenhouse condition assessed as growth inhibition at 125 g /ha measured after 6 days; format: functional, organism-based
[14] = tested on: Echinochloa oryzicola; assay: Herbicidal activity against Echinochloa oryzicola grown in water-drained pot under greenhouse condition assessed as growth inhibition at 500 g /ha measured after 6 days; format: functional, organism-based
[15] = tested on: Echinochloa oryzicola; assay: Herbicidal activity against Echinochloa oryzicola grown in water-drained pot under greenhouse condition assessed as growth inhibition at 125 g /ha measured after 13 days; format: functional, organism-based
[16] = tested on: Echinochloa oryzicola; assay: Herbicidal activity against Echinochloa oryzicola under greenhouse condition assessed as time duration of residual effect at 500 g /ha; format: functional
[17] = tested on: Echinochloa oryzicola; assay: Herbicidal activity against Echinochloa oryzicola under greenhouse condition assessed as growth inhibition at 250 g /ha measured after 27 days; format: functional, organism-based
[18] = tested on: Cyperus serotinus; assay: Herbicidal activity against Cyperus serotinus at 500 g /ha treated at 1 to 1.5-leaf stage measured after 26 days by outdoor concrete pot test; format: functional, organism-based
[19] = tested on: Echinochloa oryzicola; assay: Herbicidal activity against Echinochloa oryzicola under greenhouse condition assessed as growth inhibition at 1000 g /ha measured after 6 days; format: functional, organism-based
[20] = tested on: Echinochloa oryzicola; assay: Pre-emergence herbicide activity against Echinochloa oryzicola under greenhouse condition measured after 14 to 20 days; format: functional
[21] = tested on: Oryza sativa; assay: Phytotoxicity against two-leaf stage Oryza sativa cv. Nihonbare (rice) planted 3 cm depth measured after […]; format: organism-based; conditions: in vivo
[22] = tested on: Echinochloa oryzicola; assay: Herbicidal activity against Echinochloa oryzicola under greenhouse condition assessed as growth inhibition at 1000 g /ha measured after 42 days; format: functional, organism-based
[23] = tested on: Pontederia vaginalis; assay: Herbicidal activity against Monochoria vaginalis at 1000 g /ha treated at 1.5 to 2-leaf stage measured after 26 days by outdoor concrete pot test; format: functional, organism-based
[24] = tested on: Echinochloa oryzicola; assay: Herbicidal activity against Echinochloa oryzicola at 250 g /ha treated at 1.5 to 2-leaf stage measured after 26 days by outdoor concrete pot test; format: functional, organism-based
[25] = tested on: Sagittaria pygmaea; assay: Herbicidal activity against Sagittaria pygmaea at 250 g /ha treated at 0.5 to 1-leaf stage measured after 26 days by outdoor concrete pot test; format: functional, organism-based

Compound: CC1=C(c2ccccc2)C(=O)N(C(C)(C)c2nc3ccccc3s2)C1
- growth inhibition (GI) [1]: Active
- growth inhibition (GI) [2]: Active
- growth inhibition (GI) [3]: Active
- growth inhibition (GI) [4]: inactive
- growth inhibition (GI) [5]: Active
- growth inhibition (GI) [6]: Active
- growth inhibition (GI) [7]: Active
- growth inhibition (GI) [8]: Active
- Time [9]: >42 days
- growth inhibition (GI) [10]: inactive
- growth inhibition (GI) [11]: Active
- growth inhibition (GI) [12]: Active
- growth inhibition (GI) [13]: Active
- growth inhibition (GI) [14]: Active
- growth inhibition (GI) [15]: Active
- Time [16]: >42 days
- growth inhibition (GI) [17]: inactive
- growth inhibition (GI) [18]: Active
- growth inhibition (GI) [19]: Active
- MED [20]: 0.313 g/acre
- MTD [21]: 10 g/acre
- growth inhibition (GI) [22]: Active
- growth inhibition (GI) [23]: Active
- growth inhibition (GI) [24]: Active
- growth inhibition (GI) [25]: inactive
